Measured values as given in patent publication US20080182277A1, “Assays and methods using biomarkers” (Genentech, Inc., priority 2005, published 2008).

Columns and labels:
PSN-1 cells = test: Immunoblot analysis of the Apo2L/TRAIL-induced caspase cascade, PSN-1; type: cell-based, human; conditions: siRNA 48 h, Apo2L/TRAIL 4 or 8 h
Procedure: (§1) FIG. 12 illustrates (A) Analysis of the caspase cascade induced by Apo2L/TRAIL. PSN-1 and DLD-1 cells were transfected with siRNAs against ppGalNAcT-14 or Fut-6, respectively, for 48 h. The cells were treated with Apo2L/TRAIL for 4 or 8 h, and cell lysates were analyzed by immunoblot with antibodies specific for caspase-8, Bid, caspase-9, caspase-3, or actin as a loading control. (B) PSN-1 cells were transfected with ppGalNAcT-14 siRNA as in A, treated with Apo2L/TRAIL for 4 h, and caspase-3/7 enzymatic activity in cell lysates was determined. (C) Analysis of the Apo2L/TRAIL DISC. PSN-1 cells were transfected with ppGalNAcT-14 siRNA as in A. FLAG-Apo2L/TRAIL ([…]) was added for 0-60 min, the cells were lysed, and subjected to an immunoprecipitation with an anti-FLAG antibody. DISC-associated FADD, caspase-8, DR4, and were detected by immunoblot. (D) PSN-1 cells were transfected, treated, and subjected to DISC immunoprecipitation as in C, and DISC-associated caspase-8 enzymatic activity was measured as previously described (Sharp et al., J. Biol. Chem., 280:19401 (2005).
(§2) siRNAs were purchased as double stranded RNA oligonucleotides and transfected into the respective cell lines at a final concentration of 25 nM for each siRNA. siRNA duplexes against a non-targeting sequence (Dharmacon) was used as a control. […]

DLD-1 cells = test: Immunoblot analysis of the Apo2L/TRAIL-induced caspase cascade, DLD-1; type: cell-based, human; conditions: siRNA 48 h, Apo2L/TRAIL 4 or 8 h
Procedure: as §1, §2

Colo205 tumor xenografts = test: Tumor xenograft study, Colo205; type: in vivo, mice; conditions: Fut-6-positive Colo205; 60 mg/kg/day i.p. on days 0-4
Procedure: (§3) FIG. 10A-D illustrates differential expression of specific O-glycosylation enzymes in Apo2L/TRAIL-sensitive and -resistant cancer cell lines: (A) Cell viability was measured after incubation with varying doses of Apo2L/TRAIL. IC50 for each cell line was computed as the concentration of Apo2L/TRAIL that gives 50% loss of viability. Each cell viability experiment was repeated at least three times in presence of low (0.5%) and high (10%) fetal bovine serum. Black, grey, or open symbols depict cell lines that are highly sensitive, moderately sensitive, or resistant to Apo2L/TRAIL, respectively. (B) ppGalNAcT-14 mRNA expression levels (probe set 219271 at) in pancreatic and malignant melanoma cell lines. Cell lines are arranged by tissue type and sensitivity to Apo2L/TRAIL. […] Athymic nude mice carrying GalNAcT-3/Fut-6-positive (left panel) or GalNAcT-3/Fut-6-negative (right panel) tumors received vehicle or Apo2L/TRAIL (60 mg/kg/day i.p. on days 0-4) and tumor volume was monitored (mean ±SE, N=10 mice/group).
(§4) Monosaccharide composition of CHO-cell-derived DR5 was obtained after hydrolysis with 4 N TFA. […] Tumor measurements were collected by a digital caliper and tumor volumes calculated using the formula […] (A=length) (B=width)^2. […]

[1] = test system: panel of human cancer cell lines (23 pancreatic adenocarcinomas, 18 malignant melanomas, 36 colorectal adenocarcinomas); test: Cell viability assay to determine IC50 for Apo2L/TRAIL in a cancer cell line panel; type: cell-based
Procedure: FIG. 10A-D illustrates differential expression of specific O-glycosylation enzymes in Apo2L/TRAIL-sensitive and -resistant cancer cell lines: (A) Cell viability was measured after incubation with varying doses of Apo2L/TRAIL. IC50 for each cell line was computed as the concentration of Apo2L/TRAIL that gives 50% loss of viability. Each cell viability experiment was repeated at least three times in presence of low (0.5%) and high (10%) fetal bovine serum. Black, grey, or open symbols depict cell lines that are highly sensitive, moderately sensitive, or resistant to Apo2L/TRAIL, respectively. (B) ppGalNAcT-14 mRNA expression levels (probe set 219271 at) in pancreatic and malignant melanoma cell lines. Cell lines are arranged by tissue type and sensitivity to Apo2L/TRAIL. Black, grey, or open bars depict cell lines as in A. (C) mRNA expression levels of Fut-6 (top panel, probe set 211885_x_at) and ppGalNAcT-3 (bottom panel, probe set 203397_s_at) in colorectal cancer cell lines. […] Athymic nude mice carrying GalNAcT-3/Fut-6-positive (left panel) or GalNAcT-3/Fut-6-negative (right panel) tumors received vehicle or Apo2L/TRAIL (60 mg/kg/day i.p. on days 0-4) and tumor volume was monitored (mean ±SE, N=10 mice/group). […]

DLD-1 tumor xenografts = test: Tumor xenograft study, DLD-1; type: in vivo, mice; conditions: Fut-6-positive DLD-1; 60 mg/kg/day i.p. on days 0-4
Procedure: as §3, §4

RKO tumor xenografts = test: Tumor xenograft study, RKO; type: in vivo, mice; conditions: Fut-6-negative RKO; 60 mg/kg/day i.p. on days 0-4
Procedure: as §3, §4

Colo320 tumor xenografts = test: Tumor xenograft study, Colo320; type: in vivo, mice; conditions: Fut-6-negative Colo320; 60 mg/kg/day i.p. on days 0-4
Procedure: as §3, §4

Colo205 cells = test: Inhibition of O-glycosylation with benzyl-GalNAc, then Apo2L/TRAIL viability assay; type: cell-based, human; conditions: preincubation with Benzyl-a-GalNAc 2 mM or 4 mM, then Apo2L/TRAIL 24 h
Procedure: (§5) FIG. 11 illustrates modulation of particular O-glycosylation enzymes alters sensitivity to Apo2L/TRAIL. (A) Colo205 cells were preincubated with the pan O-glycosylation enzyme inhibitor benzyl-GalNAc (bGalNAc), treated with Apo2L/TRAIL for 24 h, and cell viability was determined (DMSO=vehicle control). (B) PSN-1 (pancreatic carcinoma) and Hs294T (melanoma) cells were transfected with caspase-8 or ppGalNAcT-14 siRNAs for 48 h, incubated with Apo2L/TRAIL for another 24 h and cell viability was determined. siRNA duplexes against a non-targeting sequence (Dharmacon) were used as a control (NTC). (C) DLD-1 colorectal carcinoma cells were transfected with ppGalNAcT-3 or Fut-6 by siRNAs and tested as in B. (D) HEK293 cells were co-transfected with plasmids encoding the indicated genes in combination with ppGalNAcT-14 or vector control. Apoptosis was measured at 24 h by Annexin V staining (left panel). H1569 melanoma cells were transduced with retrovirus directing ppGalNAcT-14 expression or control retrovirus; resulting cell line pools were treated with Apo2L/TRAIL for 24 h and cell viability was determined (right panel). Western blot analysis using anti-FLAG antibodies was used to verify expression of epitope-tagged ppGalNAcT-14.
Colo205 cells were grown in the presence of Benzyl-a-GalNAc (2 mM or 4 mM) for 72 hours. […]

Hs294T melanoma cells = test: siRNA knockdown followed by cell viability assay, Hs294T; type: cell-based, human; conditions: siRNA 25 nM 48 h, then Apo2L/TRAIL 24 h
Procedure: as §5
(§6) FIG. 14 illustrates (A) Reduction in mRNA expression of ppGalNAcT-14 or ppGalNAcT-3 in PSN-1 or DLD-1 cells after 48 h siRNA knockdown by Taqman analysis. […]

[2] = test system: PSN-1 pancreatic carcinoma cells; test: siRNA knockdown followed by cell viability assay, PSN-1; type: cell-based, human; conditions: siRNA 25 nM 48 h, then Apo2L/TRAIL 24 h
Procedure: as §5, §6

Compound	Apo2L/TRAIL-induced caspase processing (caspase-8, Bid, caspase-9, caspase-3) (PSN-1 cells)	Apo2L/TRAIL-induced caspase processing (caspase-8, Bid, caspase-9, caspase-3) (DLD-1 cells)	effect on growth of established tumor xenografts (Colo205 tumor xenografts)	cell lines classified as highly or moderately sensitive to Apo2L/TRAIL ([1]; 29/77 cell lines)	Apo2L/TRAIL concentration required for achieving 50% cell death, mean ([1]; mean over the 29 highly or moderately sensitive cell lines)	effect on growth of established tumor xenografts (DLD-1 tumor xenografts)	effect on growth of established tumor xenografts (RKO tumor xenografts)	effect on growth of established tumor xenografts (Colo320 tumor xenografts)	effect on sensitivity to Apo2L/TRAIL (cell viability) (Colo205 cells)	effect on sensitivity to Apo2L/TRAIL (cell viability) (Hs294T melanoma cells)	effect on sensitivity to Apo2L/TRAIL (cell viability) [2]
Apo2L/TRAIL: nontagged soluble recombinant human Apo2L/TRAIL, prepared as described in Lawrence et al.	essentially complete processing of caspase-8	essentially complete processing of caspase-8	tumor regression followed by a greatly delayed tumor progression	38%	250 ng/mL	tumor regression followed by a greatly delayed tumor progression	did not respond	did not respond	–	–	–
CC(=O)N[C@H]1[C@@H](OCc2ccccc2)O[C@H](CO)[C@H](O)[C@@H]1O [benzyl-GalNAc, Benzyl-a-GalNAc]	–	–	–	–	–	–	–	–	markedly reduced sensitivity to Apo2L/TRAIL	–	–
5′ GGACAAAGTTTACCAAATG-dTdT 3′ [caspase-8 siRNA, reference compound]	prevented these events	prevented these events	–	–	–	–	–	–	–	essentially complete protection	essentially complete protection
